Data set [1] in a line: Metabolic stability in mouse plasma assessed as compound remaining after 2 hrs. It is filed as ADME, cell-free. Conditions: read-out: Stability.
The next data set concerns rhinovirus B14. The data set can be described thus: Antiviral activity against HRV-14 infected in H1HeLa cells after 2 days by XTT assay. It is filed as functional, organism-based. Conditions: Rhinovirus B, H1-HeLa, 48 h. On the technique in general: Tetrazolium assays rely on reduction of a dye to a coloured formazan, in cell work by metabolically active cells.
The test system of another data set is Enterovirus A71. The data set can be described thus: Antiviral activity against Enterovirus 71/Shenzhen/120F1/09 infected in human RD cells assessed as reduction in virus induced cell death after 72 hrs by CCK-8 assay. It is filed as functional, organism-based. Conditions: Enterovirus A, Shenzhen/120F1/09, RD.
Data set [2] is described as follows: Half life in mouse at 2 mg/kg, iv. As to conditions: in vivo. Format: ADME, organism-based.
Data set [3] can be described thus: AUC in mouse at 2 mg/kg, iv. Format: ADME, organism-based. Conditions: in vivo.
A short description of data set [4]: Clearance in mouse at 2 mg/kg, iv. Format: ADME, organism-based. As to conditions: in vivo.
Data set [5] in a line: Volume of distribution in mouse at 2 mg/kg, iv. As to conditions: in vivo. Format: ADME, organism-based.
Data set [6] is described as follows: Bioavailability in mouse at 5 mg/kg, ip. As to conditions: in vivo. It is filed as ADME, organism-based.
A short description of data set [7]: Cmax in mouse at 5 mg/kg, ip. It is filed as ADME, organism-based. Details: dose 5 mg/kg, route intraperitoneal. As to conditions: in vivo.
A short description of data set [8]: AUC in mouse at 5 mg/kg, ip. It is filed as ADME, organism-based. Conditions: in vivo.
The nature of data set [9]: Half life in mouse at 5 mg/kg, ip. Format: ADME, organism-based. Conditions: in vivo.

Bounds are passed on as bounds.

Usually EC50 stands for the concentration at which the effect is half-maximal. The term half-life denotes the time in which the quantity being followed falls by half. The low end stands for rapid decline, the high end for slow decline. What is called AUC is concentration integrated over time. What is called clearance is a measure of how efficiently the substance is removed, as volume per time. The low end stands for inefficient removal, the high end for efficient removal. One may read the Vd as a proportionality between amount in the body and measured concentration, not a real space. Read a high Vd as wide distribution into tissue. By Cmax is commonly meant the peak of the concentration-time curve.

Take `CCOC(=O)/C=C/[C@H](C[C@@H]1CCNC1=O)NC(=O)[C@H](Cc1ccc(F)cc1)n1cccc(NC(=O)c2cc(C)on2)c1=O`: in data set [1], the remaining at 2 h was determined as 1.4%. The compound also registered an EC50 with rhinovirus B14 of 2 nM.

`CCOC(=O)/C=C/[C@H](C[C@@H]1CCNC1=O)NC(=O)[C@H](Cc1ccc(F)c(F)c1)n1ccc2cc(-c3ccccc3F)[nH]c2c1=O`: in the data set on Enterovirus A71, the EC50 stood at 1020 nM. Also, the remaining at 2 h in data set [1] came to 0%.

As for `Cc1cc(C(=O)N[C@H](C(=O)C[C@@H](Cc2ccc(F)cc2)C(=O)N[C@H](/C=C/C(=O)N2CCc3cc(Cl)ccc32)C[C@@H]2CCNC2=O)C(C)C)no1`, in the data set with Enterovirus A71, the EC50 is 180 nM. Further, the remaining at 2 h in data set [1] amounted to 26%.

As to `Cc1cc(C(=O)N[C@H](C(=O)C[C@@H](Cc2ccc(F)cc2)C(=O)N[C@H](/C=C/C(=O)OCc2ccccc2)C[C@@H]2CCNC2=O)C(C)C)no1`, the EC50 with Enterovirus A71 was 140 nM. For the same compound, in [1], the remaining at 2 h turned out to be 2.4%.

For the compound `CCOC(=O)/C=C/[C@H](C[C@@H]1CCNC1=O)NC(=O)[C@H](Cc1ccc(F)c(F)c1)n1ccc2ccn(Cc3ccccc3)c2c1=O`, in the data set on Enterovirus A71, the EC50 was > 100000 nM.

On to `O=C1OCC/C1=C\[C@H](C[C@@H]1CCNC1=O)NC(=O)[C@H](Cc1ccc(F)c(F)c1)n1ccc2cc(Br)[nH]c2c1=O`, for which, in the data set with Enterovirus A71, the EC50 is 2010 nM. Also, the remaining at 2 h in data set [1] amounted to 77%.

`Cc1cc(C(=O)N[C@H](C(=O)C[C@@H](Cc2ccc(F)cc2)C(=O)N[C@H](/C=C/S(=O)(=O)c2nccs2)C[C@@H]2CCNC2=O)C(C)C)no1`: the EC50 in the data set with Enterovirus A71 came out at 520 nM. Besides, in [1], the remaining at 2 h turned out to be 24%.

In the case of `Cc1cc(C(=O)N[C@H](C(=O)C[C@@H](Cc2ccc(F)cc2)C(=O)N[C@H](/C=C/C(=O)N2CCOCC2)C[C@@H]2CCNC2=O)C(C)C)no1`, in the data set with Enterovirus A71, the EC50 is 8920 nM. Moreover, the remaining at 2 h in data set [1] came to 88%.

`Cc1cc(C(=O)N[C@H](C(=O)C[C@@H](Cc2ccc(F)cc2)C(=O)N[C@H](/C=C/C(=O)N2CCCC2)C[C@@H]2CCNC2=O)C(C)C)no1`: in the data set with Enterovirus A71, the EC50 was determined as 12000 nM. Also, the remaining at 2 h in data set [1] was 82%.

`CCOC(=O)/C=C/[C@H](C[C@@H]1CCNC1=O)NC(=O)[C@H](Cc1ccc(F)c(F)c1)n1ccc2ccn(C)c2c1=O`: the EC50 in the data set on Enterovirus A71 was > 100000 nM.

Take `O=C1OCC/C1=C\[C@H](C[C@@H]1CCNC1=O)NC(=O)[C@H](Cc1ccc(F)c(F)c1)n1ccc2cc[nH]c2c1=O`: the EC50 in the data set on Enterovirus A71 was found to be 13100 nM. Further, the remaining at 2 h in [1] came out at 80%.

In the case of `Cc1cc(C(=O)N[C@H](C(=O)C[C@@H](Cc2ccc(F)cc2)C(=O)N[C@H](/C=C/C(=O)OC2CCC2)C[C@@H]2CCNC2=O)C(C)C)no1`, the EC50 in the data set on Enterovirus A71 was determined as 260 nM. In addition, the remaining at 2 h in data set [1] came to 5.3%.

`CCOC(=O)/C=C/[C@H](C[C@@H]1CCNC1=O)NC(=O)[C@H](Cc1ccc(F)c(F)c1)n1ccc2ccn(-c3ccccn3)c2c1=O`: the EC50 in the data set with Enterovirus A71 is > 100000 nM. Further, the remaining at 2 h in data set [1] was determined as 0.9%.

The compound `CCOC(=O)/C=C/[C@H](C[C@@H]1CCNC1=O)NC(=O)[C@H](Cc1ccccc1)n1ccc2cc[nH]c2c1=O` gave an EC50 with rhinovirus B14 of 1270 nM.

On to `Cc1cc(C(=O)N[C@H](C(=O)C[C@@H](Cc2ccc(F)cc2)C(=O)N[C@H](/C=C2\CC(C)OC2=O)C[C@@H]2CCNC2=O)C(C)C)no1` (stereo not given in full), for which the EC50 in the data set with Enterovirus A71 came to 220 nM. The remaining at 2 h in data set [1] is 81%.

In turn, `O=C1OCC/C1=C\[C@H](C[C@@H]1CCNC1=O)NC(=O)[C@H](Cc1ccc(F)c(F)c1)n1ccc2cc(-c3ccccc3F)[nH]c2c1=O` had a half-life in data set [2] of 75.6 min. The EC50 in the data set on Enterovirus A71 amounted to 340 nM. Besides, the remaining at 2 h in [1] was determined as 92%. Besides, the AUC in data set [3] turned out to be 0.25 µM·h. For the same compound, the clearance in data set [4] was 140 mL/min/kg. Also, the Vd in [5] stood at 8.8 L/kg.

Turning to `CCOC(=O)/C=C/[C@H](C[C@@H]1CCNC1=O)NC(=O)[C@H](Cc1ccc(F)c(F)c1)n1ccc2cc(Br)[nH]c2c1=O`, the EC50 in the data set with Enterovirus A71 was 500 nM. The remaining at 2 h in data set [1] amounted to 0.3%.

For `Cc1cc(C(=O)N[C@H](C(=O)C[C@@H](Cc2ccc(F)cc2)C(=O)N[C@H](/C=C/S(C)(=O)=O)C[C@@H]2CCNC2=O)C(C)C)no1`, in the data set on Enterovirus A71, the EC50 is 1510 nM.

`Cc1cc(C(=O)N[C@H](C(=O)C[C@@H](Cc2ccc(F)cc2)C(=O)N[C@H](/C=C/C(=O)N2CCC(F)(F)C2)C[C@@H]2CCNC2=O)C(C)C)no1`: in the data set on Enterovirus A71, the EC50 turned out to be 760 nM. Further, in data set [1], the remaining at 2 h came to 54%.

On to `Cc1cc(C(=O)N[C@H](C(=O)C[C@@H](Cc2ccc(F)cc2)C(=O)N[C@H](/C=C/C(=O)N2CCC(F)(F)CC2)C[C@@H]2CCNC2=O)C(C)C)no1`, for which, in the data set with Enterovirus A71, the 50% effective concentration (EC50) was determined as 1240 nM. Also, the remaining at 2 h in [1] was 63%.

As to `CCOC(=O)/C=C/[C@H](C[C@@H]1CCNC1=O)NC(=O)[C@H](Cc1ccc(F)c(F)c1)n1ccc2ccn(CC3CC3)c2c1=O`, the EC50 in the data set on Enterovirus A71 is > 100000 nM.

As for `CCOC(=O)/C=C/[C@H](C[C@@H]1CCNC1=O)NC(=O)[C@H](Cc1ccc(F)c(F)c1)n1ccc2cc[nH]c2c1=O`, in the data set on Enterovirus A71, the EC50 was 3560 nM. Also, the remaining at 2 h in data set [1] is 1%.

On to `Cc1cc(C(=O)N[C@H](C(=O)C[C@@H](Cc2ccc(F)cc2)C(=O)N[C@H](/C=C2\CCOC2=O)C[C@@H]2CCNC2=O)C(C)C)no1`, for which the bioavailability in data set [6] is 115%. In addition, the half-life in data set [2] was 12 min; in data set [9], 10.8 min. The EC50 in the data set on Enterovirus A71 was 28 nM. Besides, in [7], the Cmax amounted to 2570 nM. In data set [1], the remaining at 2 h amounted to 88%. The AUC in [3] amounted to 0.444 µM·h; in data set [8] it was 1.28 µM·h. For the same compound, in data set [4], the clearance is 130 mL/min/kg. The same compound came in with a Vd in data set [5] of 1.6 L/kg.

In the case of `CCOC(=O)/C=C/[C@H](C[C@@H]1CCNC1=O)NC(=O)[C@@H](CC(=O)[C@@H](NC(=O)c1cc(C)on1)C(C)C)Cc1ccc(F)cc1` [RUPINTRIVIR], the EC50 with Enterovirus A71 stood at 9 nM. The remaining at 2 h in data set [1] was determined as 2.7%.

The record behind these values is ChEMBL document CHEMBL3813668, “Design, synthesis, and biological evaluation of anti-EV71 agents” (Bioorg Med Chem Lett, 2016).
